The source of these data is US20250199015A1, “CYCLIN-DEPENDENT KINASE 2 INHIBITORS FOR MEDICAL TREATMENT” (INCYCLIX BIO, LLC, priority 2022, published 2025).

Experiment [1] deals with phosphorylated Rb (pRb 807/811) in MCF7PDRC15-1 cells. The experiment in a line: Western blot pRb, palbociclib-resistant MCF7. The class given is cell-based, human. The procedure:
Cells were harvested, counted and then plated at 300,000 cells/well in 60 mm tissue culture treated dishes. […] Lysates were clarified by centrifugation at 12,000×g for 15 min at 4° C. and supernatants were transferred to clean tubes. A BCA assay was performed to determine the protein concentration of each lysate. A total of 25 μg of protein was mixed with sample buffer and reducing agent before being run on a 4-12% SDS-PAGE. Protein was transferred to a nitrocellulose membrane and blocked with LI-COR blocking buffer for 1 hour. Membranes were incubated overnight in primary antibody at 4° C. Following 3 washes with TBST, membranes were incubated for 60 minutes in LI-COR secondary antibodies. Following 3 washes in TBST, and one TBS wash, membranes were scanned using a LI-COR OdysseyCLx. Image studio was used for image analysis.
Background: A western blot detects proteins with antibodies after separation by electrophoresis.

Experiment [2] has as its system pRb (T821, 807/811), CCNE1 in OVCAR-3 cells. The experiment in a line: Western blot pRb and cell cycle proteins. The experiment is classed as cell-based, human. As for the experimental part: Cells were plated at 300,000 cells/well in Corning 6 cm tissue culture treated plates. […] Cells were collected by washing each well twice with cold PBS, then scraping cells in the presence of 75 μL cold RIPA with protease and phosphatase inhibitors. Lysates were clarified by centrifugation at 12,000×g for 15 min at 4° C. and supernatants transferred to clean tubes. A BCA assay was performed to determine the protein concentration of each lysate. A total of 25 μg of protein was mixed with sample buffer and reducing agent before being run on a 4-12% SDS-PAGE. Protein was transferred to a nitrocellulose membrane and blocked with LI-COR blocking buffer for 1 hour. Membranes were incubated overnight in primary antibody at 4° C. Following 3 washes with TBS-T, membranes were incubated for 60 minutes in LI-COR secondary antibodies. Following 3 washes in TBS-T, and one TBS wash, membranes were scanned using a LI-COR OdysseyCLx. Image studio was used for image analysis.
The OVCAR-3 human ovarian carcinoma cell line was grown in RPMI-1640/1× Glutamax/1× Insulin/10% fetal bovine serum and was plated at 300,000 cells/well in Corning 6 well tissue culture treated plates. Cells were incubated at 37° C. for 24 hours prior to addition of 2 replicates of 0.1% DMSO control and 1 replicate for each treatment. […] Cells were collected by washing each well twice with cold PBS, then scraping cells in the presence of 150 μL cold RIPA with protease and phosphatase inhibitors. Lysates were clarified by centrifugation at 14,000×g for 10 min at 4° C. and supernatants were transferred to clean tubes. A BCA assay was performed to determine the protein concentration of each lysate. A total of 30 μg of protein was mixed with sample buffer and reducing agent before being run on a 4-12% SDS-PAGE. Protein was transferred to a nitrocellulose membrane and blocked with LI-COR blocking buffer for 1 hour. Membranes were incubated overnight in primary antibody at 4° C. Following 3 washes with TBS-T, membranes were incubated for 45 minutes in LI-COR secondary antibodies. […]

With `NS(=O)(=O)c1ccc(Nc2ncc3cc4n(c3n2)C2(CCCCC2)C(=O)NN4)cc1` [Compound I], in experiment [1] (30-1000 nM, 24 hours, no palbociclib), the “phosphorylated Rb (pRb) levels” value is reported as “little reduction in phosphorylated Rb (pRb) levels”. Further, in experiment [1] (co-administered with 1 μM palbociclib), the “phosphorylated Rb (pRb) levels” value is “substantial reduction in pRb levels”. Besides, the “pRb levels over time” value in experiment [2] (300 nM, 1-24 hours) was “time-dependent decrease in pRb levels”. In experiment [2] (30-1000 nM, 24 hours), the “cyclin E1 (CCNE1) levels” value was “levels were increased” and the pRb levels result was “dose-dependent decrease in pRb levels”.
